From US5100909A, “Acetylenic imidazoles having central nervous system activity” (The Upjohn Company, priority 1991, dated 1992)
Several values for one entry are separate records, joined by “and”; a condition that tells them apart may be missing. Equal entries are not always repeated. Where two headings read alike, the source gives them in different places.

Columns and labels:
laboratory animals = details: by a cholinergic mechanism at extremely low doses; cited from earlier work
CNS cholinergic receptor [1] = experiment: Cholinergic receptor binding assay, tritiated oxotremorine M ligand; details: read-out: CNS Cholinergic Receptor Binding Assays Ki (nM) Oxotremorine
CNS cholinergic receptor [2] = type: binding; details: tritiated quinuclidine benzylate; read-out: CNS Cholinergic Receptor Binding Assays Ki (nM) QNB
[3] = tested on: HCl-induced writhing in CF1 mice; experiment: Analgesic activity, HCl writhing protection in mice; type: in vivo; details: Mus musculus, sc, 0.25 h, read-out: CNS Id (ED50 mg/kg) HCl Writh. Protect
Method: For determination of analgesic activity, the test compound was injected subcutaneously into a group of four CF1 mice. Thirty minutes later the mice were injected i.p. with 0.15% HCl, 10 ml./kg. Mice are then placed in plastic boxes and observed for fifteen minutes to record the number of animals failing to writhe.

[4] = tested on: oxotremorine-induced body tremor in mice; experiment: Oxotremorine antagonist assay (body tremor) in mice; type: in vivo; details: Mus musculus, ip, read-out: Oxot. Antagonist Tremor (ED50)
Method: Oxotremorine antagonist assays were performed on groups of six mice weighing 18-22 g. Each was dosed intraperitoneally with the test compound prepared in 0.25% methylcellulose and were placed in individual cages. Twenty minutes later the mice were injected subcutaneously with 0.5 mg/kg of oxotremorine dissolved in saline. Ten minutes later the mice were scored for body tremor. Doses of the compound under study began at 100 mg/kg and were decreased at a 0.5 log interval until no responders were obtained.

[5] = U.S. Pat. No. 3,925,411; cited from earlier work

SMILES	tremors and spasticity in laboratory animals (laboratory animals)	Ki (CNS cholinergic receptor [1])	Ki (CNS cholinergic receptor [2]) [nM]	ED50 [3] [mg/kg]	ED50 [4] [mg/kg]	half life compared with prior oxotremorine compounds [5]
O=C1CCCN1CC#CCN1CCCC1 [Oxotremorine, N-(4-pyrrolidino-2-butynyl)-pyrrolidin-2-one, reference compound]	induces tremors and spasticity in laboratory animals	0.4 nM and 0.5 nM	220	0.025	0.11	
O=C1CCCN1CCC#CCN1CCCC1 [N-(5-pyrrolidino-3-pentynyl)-pyrrolidin-2-one]						increased half life
